The record followed here is US12161722B2, “Bifunctional heterocyclic compound having BTK degradation function via ubiquitin proteasome pathway, and use thereof” (KOREA RESEARCH INSTITUTE OF CHEMICAL TECHNOLOGY, priority 2021, dated 2024).

The structures appear in SMILES notation.

In this test the target is T1, WT BTK protein (Homo sapiens, UniProt Q06187).
T1 construct: measured for intracellular BTK protein levels by Western blotting; endogenous in cells; host or cells: TMD-8 or RAMOS cells
T1 sequence (Q06187 whole entry): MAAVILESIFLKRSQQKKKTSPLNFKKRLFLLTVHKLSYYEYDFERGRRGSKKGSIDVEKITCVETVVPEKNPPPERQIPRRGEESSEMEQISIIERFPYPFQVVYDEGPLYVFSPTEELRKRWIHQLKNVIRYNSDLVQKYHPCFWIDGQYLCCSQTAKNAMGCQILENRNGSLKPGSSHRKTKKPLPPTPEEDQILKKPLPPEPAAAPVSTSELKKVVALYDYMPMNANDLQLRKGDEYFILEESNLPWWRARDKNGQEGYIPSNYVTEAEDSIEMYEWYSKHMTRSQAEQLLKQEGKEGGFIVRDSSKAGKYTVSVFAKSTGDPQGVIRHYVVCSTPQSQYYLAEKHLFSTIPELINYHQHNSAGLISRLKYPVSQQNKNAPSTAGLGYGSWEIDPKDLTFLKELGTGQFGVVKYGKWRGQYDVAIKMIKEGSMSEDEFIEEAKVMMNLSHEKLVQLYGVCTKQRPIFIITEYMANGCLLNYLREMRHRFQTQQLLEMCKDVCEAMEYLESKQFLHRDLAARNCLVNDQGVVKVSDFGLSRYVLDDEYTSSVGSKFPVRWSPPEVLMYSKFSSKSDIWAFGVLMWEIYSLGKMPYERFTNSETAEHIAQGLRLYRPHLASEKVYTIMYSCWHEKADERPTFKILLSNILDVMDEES
The experiment in a line: BTK protein degradation assay (Western blotting), WT BTK. It is filed as cell-based. Conditions: concentration range accounting for 50% degradation of WT BTK protein, TMD-8 or RAMOS cells, 24 hours. The method, boiled down: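 BTK levels were read by Western blotting (GAPDH and β-actin normalisers) in RIPA lysates of TMD-8 cells exposed to compounds for 24 h at 1×10^6 cells/mL. Results scored in ranges of the concentration producing 50% loss of WT BTK.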
On the technique in general: A western blot detects proteins with antibodies after separation by electrophoresis.
In the case of `Cc1cccc(C)c1Nc1nn(C)c2nc(Nc3ccc(C4CCN(C(=O)C5CN(c6ccc7c(c6)C(=O)N(C6CCC(=O)NC6=O)C7=O)C5)CC4)c(F)c3)ncc12` (stereo not drawn) [Compound 229, 5-(3-(4-(4-((3-((2,6-dimethylphenyl)amino)-1-methyl-1H-pyrazolo[3,4-d]pyrimidin-6-yl)amino)-2-fluorophenyl)piperidine-1-carbonyl)azetidin-1-yl)-2-(2,6-dioxopiperidin-3-yl)isoindoline-1,3-dione], the DC50 – broadly, the concentration giving 50% degradation – was 10 to 1000 nM.

`Cc1cccc(C)c1Nc1nn(C)c2nc(Nc3ccc(C4=CCN(CC5CCN(c6ccc7c(c6)C(=O)N(C6CCC(=O)NC6=O)C7=O)CC5)CC4)cc3)ncc12` (stereo not drawn) [Compound 230, 5-(4-((4-(4-((3-((2,6-Dimethylphenyl)amino)-1-methyl-1H-pyrazolo[3,4-d]pyrimidin-6-yl)amino)phenyl)-3,6-dihydropyridin-1 (2H)-yl)methyl)piperidin-1-yl)-2-(2,6-dioxopiperidin-3-yl)isoindoline-1,3-dione]: the half-maximal degradation concentration (DC50) is 0.1 to 10 nM. Under `Cc1cccc(C)c1Nc1nn(C)c2nc(Nc3ccc(C4CCN(CC5CCN(c6ccc7c(c6)C(=O)N(C6CCC(=O)NC6=O)C7=O)CC5)CC4)cc3F)ncc12` (stereo not drawn) [Compound 231, 5-(4-((4-(4-((3-((2,6-Dimethylphenyl)amino)-1-methyl-1H-pyrazolo[3,4-d]pyrimidin-6-yl)amino)-3-fluorophenyl)piperidin-1-yl)methyl)piperidin-1-yl)-2-(2,6-dioxopiperidin-3-yl)isoindoline-1,3-dione] stands 10 to 1000 nM. On to `Cc1cccc(C)c1Nc1nn(C)c2nc(Nc3ccc4c(c3)CN(C(=S)C3CCN(c5ccc6c(c5)C(=O)N(C5CCC(=O)NC5=O)C6=O)CC3)CC4)ncc12` (stereo not drawn) [Compound 232, 5-(4-(7-((3-((2,6-dimethylphenyl)amino)-1-methyl-1H-pyrazolo[3,4-d]pyrimidin-6-yl)amino)-1,2,3,4-tetrahydroisoquinoline-2-carbonothioyl)piperidin-1-yl)-2-(2,6-dioxopiperidin-3-yl)isoindoline-1,3-dione], for which the DC50 was 0.1 to 10 nM.

With `Cc1cccc(C)c1Nc1nn(C)c2nc(Nc3ccc4c(c3)CN(C(=S)C3CCN(c5cc6c(cc5F)C(=O)N(C5CCC(=O)NC5=O)C6=O)CC3)CC4)ncc12` (stereo not drawn) [Compound 233, 5-(4-(7-((3-((2,6-dimethylphenyl)amino)-1-methyl-1H-pyrazolo[3,4-d]pyrimidin-6-yl)amino)-1,2,3,4-tetrahydroisoquinoline-2-carbonothioyl)piperidin-1-yl)-2-(2,6-dioxopiperidin-3-yl)-6-fluoroisoindoline-1,3-dione], the 50% degradation concentration (DC50) lay within 0.1 to 10 nM. Turning to `Cc1cccc(C)c1Nc1nn(C)c2nc(Nc3ccc4c(c3)CN(C(=S)C3CCN(C(=O)C5CCN(c6ccc7c(c6)C(=O)N(C6CCC(=O)NC6=O)C7=O)CC5)CC3)CC4)ncc12` (stereo not drawn) [Compound 234, 5-(4-(4-(7-((3-((2,6-dimethylphenyl)amino)-1-methyl-1H-pyrazolo[3,4-d]pyrimidin-6-yl)amino)-1,2,3,4-tetrahydroisoquinoline-2-carbonothioyl)piperidine-1-carbonyl)piperidin-1-yl)-2-(2,6-dioxopiperidin-3-yl)isoindoline-1,3-dione], the DC50 was 0.1 to 10 nM. With `Cc1cccc(C)c1Nc1nn(C)c2nc(Nc3ccc4c(c3)CN(C(=S)C3CCN(C(=O)CNc5ccc6c(c5)C(=O)N(C5CCC(=O)NC5=O)C6=O)CC3)CC4)ncc12` (stereo not drawn) [Compound 235, 5-((2-(4-(7-((3-((2,6-dimethylphenyl)amino)-1-methyl-1H-pyrazolo[3,4-d]pyrimidin-6-yl)amino)-1,2,3,4-tetrahydroisoquinoline-2-carbonothioyl)piperidin-1-yl)-2-oxoethyl)amino)-2-(2,6-dioxopiperidin-3-yl)isoindoline-1,3-dione] the figure was 0.1 to 10 nM. With `Cc1cccc(C)c1Nc1nn(C)c2nc(Nc3ccc4c(c3)CN(C(=S)C3CCN(C(=O)COc5ccc6c(c5)C(=O)N(C5CCC(=O)NC5=O)C6=O)CC3)CC4)ncc12` (stereo not drawn) [Compound 236, 5-(2-(4-(7-((3-((2,6-dimethylphenyl)amino)-1-methyl-1H-pyrazolo[3,4-d]pyrimidin-6-yl)amino)-1,2,3,4-tetrahydroisoquinoline-2-carbonothioyl)piperidin-1-yl)-2-oxoethoxy)-2-(2,6-dioxopiperidin-3-yl)isoindoline-1,3-dione] the figure was 0.1 to 10 nM; with `Cc1cccc(C)c1Nc1nn(C)c2nc(Nc3ccc4c(c3)CN(CC3CCN(c5ccc6c(c5)CN(C5CCC(=O)NC5=O)C6=O)CC3)CC4)ncc12` (stereo not drawn) [Compound 237, 3-(5-(4-((7-((3-((2,6-Dimethylphenyl)amino)-1-methyl-1H-pyrazolo[3,4-d]pyrimidin-6-yl)amino)-3,4-dihydroisoquinolin-2 (1H)-yl)methyl)piperidin-1-yl)-1-oxoisoindolin-2-yl)piperidin-2,6-one], 0.1 to 10 nM. Under `Cc1cccc(C)c1Nc1nn(C)c2nc(Nc3ccc(N4CCN(c5ccc6c(c5)C(=O)N(C5CCC(=O)NC5=O)C6=O)CC4)cc3)ncc12` (stereo not drawn) [Compound 238, 5-(4-(4-((3-((2,6-dimethylphenyl)amino)-1-methyl-1H-pyrazolo[3,4-d]pyrimidin-6-yl)amino)phenyl)piperazin-1-yl)-2-(2,6-dioxopiperidin-3-yl)isoindoline-1,3-dione] stands 0.1 to 10 nM. In the case of `Cc1cccc(C)c1Nc1nn(C)c2nc(Nc3ccc(N4CCN(c5cc6c(cc5F)C(=O)N(C5CCC(=O)NC5=O)C6=O)CC4)cc3)ncc12` (stereo not drawn) [Compound 239, 5-(4-(4-((3-((2,6-Dimethylphenyl)amino)-1-methyl-1H-pyrazolo[3,4-d]pyrimidin-6-yl)amino)phenyl)piperazin-1-yl)-2-(2,6-dioxopiperidin-3-yl)-6-fluoroisoindoline-1,3-dione], the DC50 lay within 10 to 1000 nM. Under `Cc1cccc(C)c1Nc1nn(C)c2nc(Nc3ccc4c(c3)CN(C(=O)/C(C#N)=C/C3CCN(C(=O)C5CCN(c6ccc7c(c6)C(=O)N(C6CCC(=O)NC6=O)C7=O)CC5)CC3)CC4)ncc12` (stereo not drawn) [Compound 240, (E)-2-(7-((3-((2,6-Dimethylphenyl)amino)-1-methyl-1H-pyrazolo[3,4-d]pyrimidin-6-yl)amino)-1,2,3,4-tetrahydroisoquinoline-2-carbonyl)-3-(1-(1-(2-(2,6-dioxopiperidin-3-yl)-1,3-dioxoisoindolin-5-yl)piperidine-4-carbonyl)piperidin-4-yl)acrylonitrile] stands 0.1 to 10 nM.

As to `Cc1cccc(C)c1Nc1nn(C)c2nc(Nc3ccc4c(c3)CN(C(=O)/C(C#N)=C/C3CCN(C(=O)COc5ccc6c(c5)C(=O)N(C5CCC(=O)NC5=O)C6=O)CC3)CC4)ncc12` (stereo not drawn) [Compound 241, (E)-2-(7-((3-((2,6-dimethylphenyl)amino)-1-methyl-1H-pyrazolo[3,4-d]pyrimidin-6-yl)amino)-1,2,3,4-tetrahydroisoquinoline-2-carbonyl)-3-(1-(2-((2-(2,6-dioxopiperidin-3-yl)-1,3-dioxoisoindolin-5-yl)oxy)acetyl)piperidin-4-yl)acrylonitrile], the DC50 lay within 0.1 to 10 nM.

Turning to `Cc1cccc(C)c1Nc1nn(C)c2nc(Nc3ccc4c(c3)CN(C(=O)C3(F)CCN(c5ccc6c(c5)C(=O)N(C5CCC(=O)NC5=O)C6=O)CC3)CC4)ncc12` (stereo not drawn) [Compound 243, 5-(4-(7-((3-((2,6-dimethylphenyl)amino)-1-methyl-1H-pyrazolo[3,4-d]pyrimidin-6-yl)amino)-1,2,3,4-tetrahydroisoquinoline-2-carbonyl)-4-fluoropiperidin-1-yl)-2-(2,6-dioxopiperidin-3-yl)isoindoline-1,3-dione], the DC50 lay in the range of 0.1 to 10 nM. With `Cc1cccc(C)c1Nc1nn(C)c2nc(Nc3ccc4c(c3)CN(C(=O)C3(F)CCN(c5cc6c(cc5F)C(=O)N(C5CCC(=O)NC5=O)C6=O)CC3)CC4)ncc12` (stereo not drawn) [Compound 244, 5-(4-(7-((3-((2,6-dimethylphenyl)amino)-1-methyl-1H-pyrazolo[3,4-d]pyrimidin-6-yl)amino)-1,2,3,4-tetrahydroisoquinoline-2-carbonyl)-4-fluoropiperidin-1-yl)-2-(2,6-dioxopiperidin-3-yl)-6-fluoroisoindoline-1,3-dione], the DC50 lay in the range of 0.1 to 10 nM. Under `Cc1cccc(C)c1Nc1nn(C)c2nc(Nc3ccc(N4CCN(CC5CCN(c6cc7c(cc6F)C(=O)N(C6CCC(=O)NC6=O)C7)CC5)CC4)cc3)ncc12` (stereo not drawn) [Compound 245, 3-(5-(4-((4-(4-((3-((2,6-Dimethylphenyl)amino)-1-methyl-1H-pyrazolo[3,4-d]pyrimidin-6-yl)amino)phenyl)piperazin-1-yl)methyl)piperidin-1-yl)-6-fluoro-1-oxoisoindolin-2-yl)piperidin-2,6-one] stands 0.1 to 10 nM.

For `Cc1cccc(C)c1Nc1nn(C)c2nc(Nc3ccc4c(c3)CN(C(=O)C3(F)CCN(C(=O)C5CCN(c6ccc7c(c6)C(=O)N(C6CCC(=O)NC6=O)C7=O)CC5)CC3)CC4)ncc12` (stereo not drawn) [Compound 246, 5-(4-(4-(7-((3-((2,6-dimethylphenyl)amino)-1-methyl-1H-pyrazolo[3,4-d]pyrimidin-6-yl)amino)-1,2,3,4-tetrahydroisoquinoline-2-carbonyl)-4-fluoropiperidine-1-carbonyl)piperidin-1-yl)-2-(2,6-dioxopiperidin-3-yl)isoindoline-1,3-dione], the DC50 was 0.1 to 10 nM. With `Cc1cccc(C)c1Nc1nn(C)c2nc(Nc3ccc4c(c3)CN(C(=O)C3(F)CCN(C(=O)CNc5ccc6c(c5)C(=O)N(C5CCC(=O)NC5=O)C6=O)CC3)CC4)ncc12` (stereo not drawn) [Compound 247, 5-((2-(4-(7-((3-((2,6-Dimethylphenyl)amino)-1-methyl-1H-pyrazolo[3,4-d]pyrimidin-6-yl)amino)-1,2,3,4-tetrahydroisoquinoline-2-carbonyl)-4-fluoropiperidin-1-yl)-2-oxoethyl)amino)-2-(2,6-dioxopiperidin-3-yl)isoindoline-1,3-dione] the figure was 0.1 to 10 nM.
